Legend:
[1] = Aqueous Solubility Assay; details: PBS buffer pH 7.4; maximum upper limit 1,000 μM
[2] = tested on: IL-22 suppressed Filaggrin expression in normal human epidermal keratinocytes; experiment: Recovery of IL-22 Suppressed Filaggrin in Normal Human Epidermal Keratinocytes; assay type: cell-based; details: IL-22 50 ng/mL, real-time PCR
Experimental: Assay 7: Recovery of IL-22 Suppressed Filaggrin in Normal Human Epidermal Keratinocytes
IL-22 is known to inhibit the expression of terminal differentiation genes, such as Filaggrin. The recovery level of test compound for interleukin-22 (IL-22) suppressed Filaggrin expression was measured in the normal human epidermal keratinocytes (ATCC) using real-time PCR.
Primary epidermal keratinocytes were cultured in a 37° C., 5% CO2 humidified incubator in dermal cell basal medium (ATCC) supplemented with keratinocyte growth kit (ATCC) and 1× Pen/Strep (Life Technologies). Cells were seeded at 5,000 cells/well in BioCoat 96-well plates (Corning) with 100 μl and incubated at 37° C., 5% CO2 for 3 to 4 days till 100% confluency. Then, the medium was removed and replaced with 1504 of medium containing does-response of test compounds. Compounds were serially diluted in DMSO and then diluted another 1000-fold in media to bring the final DMSO concentration to 0.1%. On day 1 of the assay, cells were incubated with test compounds at 37° C. for 1 h, and followed by the addition of followed by the addition of IL-22 (R&D Systems; final concentration 50 ng/mL) in pre-warmed media (50 μL) for 4 days. The medium with test compounds and IL-22 was changed once on day 3. On day 5, cells were washed with 1×PBS (Gibco) and lysed with 50 μl of Lysis Buffer containing 0.5 μl DnaseI from TaqMan® Gene Expression Cells-to-Ct™ Kit (Life Technologies). After incubation at room temperature (RT) for 5 minutes, 5 μl of Stop solution from the kit was added and then incubated at RT for 2 minutes. 11.25 μl of lysate, 12.5 μl of 2×RT buffer and 1.25 μl 20×RT enzyme mix from the kit were mixed. The reverse transcription reaction was carried out by incubating the mixture at 37° C. for 60 minutes and then 95° C. for 5 minutes to generate cDNA. To assemble the PCR cocktail, each reaction contained 10 μl of 2× TaqMan® Gene Expression Mater Mix, 1 μl of 2× TaqMan® Filaggrin Gene Expression Assay (Life Technologies), 1 μl of 2× TaqMan® UBC Gene Expression Assay (Life Technologies), 4 μl of nuclease-free water and 4 μl of cDNA. PCR reactions were done on StepOnePlus™ (Life Technologies) with cycling conditions of 50° C. for 2 minutes, 95° C. for 10 minutes followed by 40 cycles of 95° C. for 15 seconds and 60° C. for 1 minute. Fluorescence signals were captured after each cycle. Comparative CT method was used to quantify gene expression with cells without IL-22 and test compounds as baseline control.

[3] = tested on: IL-2 stimulated pSTAT5 in Tall-1 T cells; experiment: Inhibition of IL-2 Stimulated pSTAT5 in Tall-1 T Cells; assay type: cell-based; details: Tall-1 human T cell line, IL-2 300 ng/mL, AlphaLisa
How it was run: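 Cells preincubated with compound 1 hour at 37° C, then stimulated with IL-2 (final 300 ng/mL) for 30 minutes. After lysis, pSTAT5 (Tyr694/699) read by AlphaLISA luminescence. IC50 from inhibition curves, reported as pIC50 (mean±SD).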

SMILES | Solubility at PH 7.4 (μmol) [1] | concentration at which recovery of IL-22 suppressed Filaggrin expression was observed [2] [µM] | Tall-1 IL2 pSTAT5 (pIC50) [3] | IC50 ([3]; read-out: Tall-1 IL2 pSTAT5 (pIC50) (converted)) [nM]
CCS(=O)(=O)N1[C@@H]2CCC[C@H]1C[C@H](N(C)c1nc(COC3COC3)c(F)c(Nc3cc(C)[nH]n3)n1)C2 [Compound 41, N2-((1R,3s,5S)-9-(ethylsulfonyl)-9-azabicyclo[3.3.1]nonan-3-yl)-5-fluoro-N2-methyl-N4-(5-methyl-1H-pyrazol-3-yl)-6-((oxetan-3-yloxy)methyl)pyrimidine-2,4-diamine] | D (D represents a value between 10 and 50) | < 1 | A (A represents a pIC50 value ≥8.0) | 
CCS(=O)(=O)N1[C@@H]2CCC[C@H]1C[C@H](N(C)c1nc(CO[C@H]3CCOC3)c(F)c(Nc3cc(C)[nH]n3)n1)C2 [Compound 42, N2-((1R,3s,5S)-9-(ethylsulfonyl)-9-azabicyclo[3.3.1]nonan-3-yl)-5-fluoro-N2-methyl-N4-(5-methyl-1H-pyrazol-3-yl)-6-((((S)-tetrahydrofuran-3-yl)oxy)methyl)pyrimidine-2,4-diamine] | B (B represents a value between 250 and 500) | < 1 | A (A represents a pIC50 value ≥8.0) | 
CCS(=O)(=O)N1[C@@H]2CCC[C@H]1C[C@H](N(C)c1nc(Nc3cc(C)[nH]n3)cc(C3CCCO3)n1)C2 (stereo partly drawn) [Compound 8, N^2-((1R,3s,5S)-9-(ethylsulfonyl)-9-azabicyclo[3.3.1]nonan-3-yl)-N2-methyl-N4-(5-methyl-1H-pyrazol-3-yl)-6-(tetrahydrofuran-2-yl)pyrimidine-2,4-diamine] | C (C represents a value between 50 and 250) | < 1 | A (A represents a pIC50 value ≥8.0) | 
CCS(=O)(=O)N1[C@@H]2CCC[C@H]1C[C@H](N(C)c1nc(CO[C@@H]3CCOC3)c(F)c(Nc3cc(C)[nH]n3)n1)C2 [Compound 43, N2-((1R,3s,5S)-9-(ethylsulfonyl)-9-azabicyclo[3.3.1]nonan-3-yl)-5-fluoro-N2-methyl-N4-(5-methyl-1H-pyrazol-3-yl)-6-((((R)-tetrahydrofuran-3-yl)oxy)methyl)pyrimidine-2,4-diamine] | B (B represents a value between 250 and 500) | < 1 | A (A represents a pIC50 value ≥8.0) | 
COC(=O)N1[C@@H]2CCC[C@H]1C[C@H](N(C)c1nc(Nc3cc(C)[nH]n3)cc(O[C@@H]3CCOC3)n1)C2 [Compound 23] |  | < 1 |  | 10 to 31.6

— patent publication US11439641B2, “Pyrimidine JAK inhibitors for the treatment of skin diseases” (THERAVANCE BIOPHARMA R&D IP, LLC, priority 2019, dated 2022)
